Measurements reported in US11365192B2, “Pyridine compound substituted with azole” (TAISHO PHARMACEUTICAL CO., LTD., priority 2017, dated 2022).
One block for each compound: values may come before it.

How the values were obtained:
[1] = target: human CYP4A11 (Homo sapiens (Human), UniProt Q02928); test: Inhibition test against 20-HETE producing enzyme CYP4A11 (luciferine derivative, luminescence); assay type: biochemical; conditions: E. coli membrane fraction expressing human CYP4A11, 60 μM luciferine derivative, room temperature 60 minutes
Method: (§1) (1) Inhibition Test for Each Compound of the Present Invention Against 20-HETE Producing Enzymes (CYP4F2 and CYP4A11)
(§2) In the CYP4F2 inhibition test, the reaction solution containing each compound [final concentration of 50 mM, KPO4 (pH 7.4), 2.5 μM luciferine derivative, and 1 mM NADPH] was added to an Escherichia coli membrane fraction (100 μg/mL protein) in which human CYP4F2 had been expressed. In the CYP4A11 inhibition test, the reaction solution containing each compound [final concentration of 100 mM, Tris-HCl (pH 7.5), 60 μM luciferine derivative, 1.3 mM NADP^+, 3.3 mM Glucose 6-Phosphate, 3.3 mM MgCl2, and 0.4 U/mL Glucose 6-Phosphate dehydrogenase] was added to an Escherichia coli membrane fraction (100 μg/mL protein) in which human CYP4A11 had been expressed. Following this, the membrane fraction was left to stand at room temperature for 60 minutes to perform an enzymatic reaction. After the reaction, a luciferine detection reagent was added, and the luminescence value was measured using a plate reader. By using that value, the percent inhibition of 20-HETE producing enzyme (%) was calculated according to the equation described below, and the 50% inhibitory concentration (IC50 value) for each compound was calculated. Percent inhibition of 20-HETE producing enzyme (%)=[1−(A−B)/(C−B)]*100
(§3) A: Luminescence value with addition of compound
(§4) B: Luminescence value without addition of compound and enzyme

[2] = target: human CYP4F2 (Homo sapiens (Human), UniProt P78329); test: Inhibition test against 20-HETE producing enzyme CYP4F2 (luciferine derivative, luminescence); assay type: biochemical; conditions: E. coli membrane fraction expressing human CYP4F2, 2.5 μM luciferine derivative, room temperature 60 minutes
Method: as §1, §2, §3, §4

Chain of human CYP4F2 (P78329 5-520): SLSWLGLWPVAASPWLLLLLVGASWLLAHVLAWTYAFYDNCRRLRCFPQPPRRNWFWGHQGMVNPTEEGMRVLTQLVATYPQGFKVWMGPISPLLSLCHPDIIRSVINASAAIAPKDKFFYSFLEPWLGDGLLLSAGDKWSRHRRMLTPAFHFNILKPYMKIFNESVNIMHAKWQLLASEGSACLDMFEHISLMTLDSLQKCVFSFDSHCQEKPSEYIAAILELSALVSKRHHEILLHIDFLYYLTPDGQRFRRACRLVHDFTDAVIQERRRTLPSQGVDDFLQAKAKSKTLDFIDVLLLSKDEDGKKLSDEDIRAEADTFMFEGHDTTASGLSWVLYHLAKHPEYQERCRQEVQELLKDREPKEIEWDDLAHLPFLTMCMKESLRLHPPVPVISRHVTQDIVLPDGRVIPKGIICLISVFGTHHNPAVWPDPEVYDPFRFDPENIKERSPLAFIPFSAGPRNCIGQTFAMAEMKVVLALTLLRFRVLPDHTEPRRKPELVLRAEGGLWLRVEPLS
Chain of human CYP4A11 (Q02928 5-519): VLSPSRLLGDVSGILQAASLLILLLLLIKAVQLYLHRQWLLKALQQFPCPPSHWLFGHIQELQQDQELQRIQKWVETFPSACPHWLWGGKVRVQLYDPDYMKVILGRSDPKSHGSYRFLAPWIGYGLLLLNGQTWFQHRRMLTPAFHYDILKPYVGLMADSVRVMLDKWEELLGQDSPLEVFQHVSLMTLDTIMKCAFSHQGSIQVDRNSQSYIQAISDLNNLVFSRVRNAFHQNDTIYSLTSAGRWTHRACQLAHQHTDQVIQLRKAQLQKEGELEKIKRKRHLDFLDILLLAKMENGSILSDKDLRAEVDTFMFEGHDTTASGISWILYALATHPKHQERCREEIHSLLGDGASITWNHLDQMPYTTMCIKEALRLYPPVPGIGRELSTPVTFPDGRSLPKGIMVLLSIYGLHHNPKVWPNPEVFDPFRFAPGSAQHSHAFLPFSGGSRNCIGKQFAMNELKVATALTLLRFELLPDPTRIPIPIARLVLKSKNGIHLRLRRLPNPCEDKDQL

SMILES: O=C(O)Cn1cc(CCCCOc2ccc(-c3ccn[nH]3)nc2)cn1 [Example 8-12]
IC50 [1]: 100 nM | IC50 [2]: 5000 nM

SMILES: CC(C)(C(=O)O)n1cc(CCCCOc2ccc(-c3ccn[nH]3)nc2)cn1 [Example 8-13]
IC50 [1]: 120 nM | IC50 [2]: 8300 nM

SMILES: CC(C)(C(=O)O)n1ccc(CCCCOc2ccc(-c3ccn[nH]3)nc2)n1 [Example 8-14]
IC50 [1]: 68 nM | IC50 [2]: 11000 nM

SMILES: O=C(O)Cn1ccc(CCCCOc2ccc(-c3ccn[nH]3)nc2)cc1=O [Example 8-15]
IC50 [1]: 530 nM | IC50 [2]: 1400 nM

SMILES: O=C(O)Cc1cccc(COc2ccc(-c3ccn[nH]3)nc2)n1 [Example 8-16]
IC50 [1]: 750 nM | IC50 [2]: 680 nM

SMILES: O=C(O)C12CC(COc3ccc(-c4ccn[nH]4)nc3)(C1)C2 [Example 8-17]
IC50 [1]: 520 nM | IC50 [2]: 22000 nM

SMILES: O=C(O)C12CCC(COc3ccc(-c4ccn[nH]4)nc3)(CC1)CC2 [Example 8-18]
IC50 [1]: 52 nM | IC50 [2]: 16000 nM

SMILES: CC(C)(OCCCCOCCCCOc1ccc(-c2ccn[nH]2)nc1)C(=O)O [Example 9-2]
IC50 [1]: 1800 nM | IC50 [2]: 1100 nM

SMILES: CC(C)(OCCCOCCCCOc1ccc(-c2ccn[nH]2)nc1)C(=O)O [Example 9-3]
IC50 [1]: 1400 nM | IC50 [2]: 490 nM

SMILES: O=C(O)CCCCOc1ccc(-c2ccn[nH]2)nc1 [Example 10-1, 5-[[6-(1H-Pyrazol-5-yl)-3-pyridinyl]oxy]pentanoic Acid]
IC50 [1]: 560 nM | IC50 [2]: 19000 nM

SMILES: O=C(O)COc1cccc(COc2ccc(-c3ccn[nH]3)nc2)c1 [Example 10-2, 2-[3-[[6-(1H-Pyrazol-5-yl)-3-pyridinyl]oxymethyl]phenoxy]acetic Acid]
IC50 [1]: 23 nM | IC50 [2]: 1100 nM

SMILES: Oc1cc(CCCOc2ccc(-c3ccn[nH]3)nc2)cc(F)c1F [Example 11-1, 2,3-Difluoro-5-[3-[[6-(1H-pyrazol-5-yl)-3-pyridinyl]oxy]propyl]phenol]
IC50 [1]: 140 nM | IC50 [2]: 5.1 nM

SMILES: Oc1cccc(CCCOc2ccc(-c3ccn[nH]3)nc2)c1 [Example 11-2]
IC50 [1]: 520 nM | IC50 [2]: 19 nM

SMILES: Oc1cc(CCCOc2ccc(-c3ccn[nH]3)nc2)ccc1F [Example 11-3]
IC50 [1]: 270 nM | IC50 [2]: 7.3 nM

SMILES: NS(=O)(=O)CCCCCOc1ccc(-c2ccn[nH]2)nc1 [Example 11-4, 5-[[6-(1H-Pyrazol-5-yl)-3-pyridinyl]oxy]-1-pentanesulfonamide]
IC50 [1]: 4500 nM | IC50 [2]: 1300 nM

Second part, the compound after the results:

IC50 [1]: 260 nM | IC50 [2]: 6.2 nM
SMILES: Cc1ccc(COc2ccc(-c3ccn[nH]3)nc2)cc1O [Example 12-1, 2-Methyl-5-[[6-(1H-pyrazol-5-yl)-3-pyridinyl]oxymethyl]phenol]

IC50 [1]: 310 nM | IC50 [2]: 11 nM
SMILES: Oc1cc(COc2ccc(-c3ccn[nH]3)nc2)ccc1F [Example 12-2]

IC50 [1]: 290 nM | IC50 [2]: 25 nM
SMILES: Oc1cc(F)cc(COc2ccc(-c3ccn[nH]3)nc2)c1 [Example 12-3]

IC50 [1]: 610 nM | IC50 [2]: 34 nM
SMILES: Oc1cccc(COc2ccc(-c3ccn[nH]3)nc2)c1 [Example 13-1, 3-[[6-(1H-Pyrazol-5-yl)-3-pyridinyl]oxymethyl]phenol]

IC50 [1]: 400 nM | IC50 [2]: 13 nM
SMILES: Oc1ccccc1CCOc1ccc(-c2ccn[nH]2)nc1 [Example 13-2]

IC50 [1]: 300 nM | IC50 [2]: 19 nM
SMILES: Oc1cccc(CCOc2ccc(-c3ccn[nH]3)nc2)c1 [Example 13-3]

IC50 [1]: 30 nM | IC50 [2]: 2200 nM
SMILES: O=C(O)CCS(=O)(=O)c1cccc(COc2ccc(-c3ccn[nH]3)nc2)c1 [Example 14-1, 3-[3-[[6-(1H-Pyrazol-5-yl)-3-pyridinyl]oxymethyl]phenyl]sulfonylpropanoic Acid]

IC50 [1]: 690 nM | IC50 [2]: 25000 nM
SMILES: O=C(O)c1cnn(CCCOc2ccc(-c3ccn[nH]3)nc2)c1 [Example 15-2, 1-[3-[[6-(1H-Pyrazol-5-yl)-3-pyridinyl]oxy]propyl]-4-pyrazolecarboxylic Acid]

IC50 [1]: 130 nM | IC50 [2]: 6300 nM
SMILES: O=C(O)c1cnn(CCCCOc2ccc(-c3ccn[nH]3)nc2)c1 [Example 15-3]
